Experimental data reported in paper PMC4303209, “A novel phosphatidylinositol 3-kinase (PI3K) inhibitor directs a potent FOXO-dependent, p53-independent cell cycle arrest phenotype characterized by the differential induction of a subset of FOXO-regulated genes” (Breast Cancer Research : BCR, 2014).

Tested on: MCF-7 breast cancer cells
Experiment: Microarray gene expression analysis (Agilent whole human genome 4 x 44K; compound vs DMSO, LIMMA log2 fold change)
Type: cell-based

SMILES: Cn1ncc2c(N3CCOCC3)nc(-c3cccc(O)c3)nc21 [ETP-45658]
- BCL11B log2FC (Apoptosis genes, Gene 64919): 0.176
- MRPL41 log2FC (Apoptosis genes, Gene 64975): -0.545
- PINK1 log2FC (Apoptosis genes, Gene 65018): 1.625
- PRAMEF1 log2FC (Apoptosis genes, Gene 65121): -0.072
- PRAMEF2 log2FC (Apoptosis genes, Gene 65122): 0.062
- UBE2Z log2FC (Apoptosis genes, Gene 65264): -0.414
- TMEM109 log2FC (Apoptosis genes, Gene 79073): -0.626
- CHAC1 log2FC (Apoptosis genes, Gene 79094): -0.144
- TNIP2 log2FC (Apoptosis genes, Gene 79155): -0.126
- PLEKHF1 log2FC (Apoptosis genes, Gene 79156): -0.469
- THOC6 log2FC (Apoptosis genes, Gene 79228): -0.373
- BCL2L14 log2FC (Apoptosis genes, Gene 79370): -0.145
- BIRC7 log2FC (Apoptosis genes, Gene 79444): -0.043
- ELMO3 log2FC (Apoptosis genes, Gene 79767): -0.597
- SLTM log2FC (Apoptosis genes, Gene 79811): 0.763
- ZC3H12A log2FC (Apoptosis genes, Gene 80149): -1.168
- RNF34 log2FC (Apoptosis genes, Gene 80196): -0.174
- ELL3 log2FC (Apoptosis genes, Gene 80237): 1.095
- CPEB4 log2FC (Apoptosis genes, Gene 80315): 0.577
- COL18A1 log2FC (Apoptosis genes, Gene 80781): -0.387
- SGPP1 log2FC (Apoptosis genes, Gene 81537): -0.165
- SHARPIN log2FC (Apoptosis genes, Gene 81858): -0.232
- APH1B log2FC (Apoptosis genes, Gene 83464): -0.559
- RASSF5 log2FC (Apoptosis genes, Gene 83593): -0.091
- SOX7 log2FC (Apoptosis genes, Gene 83595): -0.214
- BCL2L12 log2FC (Apoptosis genes, Gene 83596): -0.236
- ITCH log2FC (Apoptosis genes, Gene 83737): 0.721
- CDCA7 log2FC (Apoptosis genes, Gene 83879): 0.213
- TATDN1 log2FC (Apoptosis genes, Gene 83940): 0.636
- TM2D1 log2FC (Apoptosis genes, Gene 83941): 0.088
- OBSCN log2FC (Apoptosis genes, Gene 84033): 0.277
- TRAF7 log2FC (Apoptosis genes, Gene 84231): -0.191
- RHBDD1 log2FC (Apoptosis genes, Gene 84236): -0.533
- TCHP log2FC (Apoptosis genes, Gene 84260): 0.198
- ZDHHC16 log2FC (Apoptosis genes, Gene 84287): -0.471
- ING5 log2FC (Apoptosis genes, Gene 84289): -0.932
- AKT1S1 log2FC (Apoptosis genes, Gene 84335): -0.939
- CARD11 log2FC (Apoptosis genes, Gene 84433): 0.083
- SYVN1 log2FC (Apoptosis genes, Gene 84447): 0.455
- ZC3H8 log2FC (Apoptosis genes, Gene 84524): 1.519
- FNDC1 log2FC (Apoptosis genes, Gene 84624): -0.102
- CARD6 log2FC (Apoptosis genes, Gene 84674): 0.198
- HINT2 log2FC (Apoptosis genes, Gene 84681): -0.153
- BEX2 log2FC (Apoptosis genes, Gene 84707): 0.736
- TNS4 log2FC (Apoptosis genes, Gene 84951): -1.366
- ATG4D log2FC (Apoptosis genes, Gene 84971): -0.461
- SCRT2 log2FC (Apoptosis genes, Gene 85508): -0.569
- WNT3A log2FC (Apoptosis genes, Gene 89780): -0.585
- FGD3 log2FC (Apoptosis genes, Gene 89846): 0.596
- UNC5A log2FC (Apoptosis genes, Gene 90249): -0.468
- BMF log2FC (Apoptosis genes, Gene 90427): 2.299
- MTDH log2FC (Apoptosis genes, Gene 92140): 0.563
- TIMM50 log2FC (Apoptosis genes, Gene 92609): -0.439
- TP53INP1 log2FC (Apoptosis genes, Gene 94241): 0.920
- EGLN2 log2FC (Apoptosis genes, Gene 112398): 0.272
- EGLN3 log2FC (Apoptosis genes, Gene 112399): -0.474
- PNMA5 log2FC (Apoptosis genes, Gene 114824): 0.435
- SLC5A11 log2FC (Apoptosis genes, Gene 115584): 0.136
- TWIST2 log2FC (Apoptosis genes, Gene 117581): -0.722
- RFFL log2FC (Apoptosis genes, Gene 117584): -0.488
- FGD4 log2FC (Apoptosis genes, Gene 121512): 0.637
- RXFP2 log2FC (Apoptosis genes, Gene 122042): -0.049
- DCUN1D3 log2FC (Apoptosis genes, Gene 123879): -1.081
- ACVR1C log2FC (Apoptosis genes, Gene 130399): 0.259
- IL31RA log2FC (Apoptosis genes, Gene 133396): 0.071
- JMY log2FC (Apoptosis genes, Gene 133746): 1.016
- UNC5D log2FC (Apoptosis genes, Gene 137970): 0.118
- DYNLL2 log2FC (Apoptosis genes, Gene 140735): -0.697
- PSMA8 log2FC (Apoptosis genes, Gene 143471): 0.068
- TICAM1 log2FC (Apoptosis genes, Gene 148022): -0.493
- BNIPL log2FC (Apoptosis genes, Gene 149428): -0.061
- ZSWIM2 log2FC (Apoptosis genes, Gene 151112): 0.088
- DAB2IP log2FC (Apoptosis genes, Gene 153090): -0.220
- SLC5A8 log2FC (Apoptosis genes, Gene 160728): -0.070
- PTCRA log2FC (Apoptosis genes, Gene 171558): -0.425
- HIGD2A log2FC (Apoptosis genes, Gene 192286): -0.398
- FLCN log2FC (Apoptosis genes, Gene 201163): 0.968
- HIPK1 log2FC (Apoptosis genes, Gene 204851): -0.153
- UNC5B log2FC (Apoptosis genes, Gene 219699): -0.570
- RNF152 log2FC (Apoptosis genes, Gene 220441): -0.038
- FGD2 log2FC (Apoptosis genes, Gene 221472): -0.102
- MPV17L log2FC (Apoptosis genes, Gene 255027): -0.367
- TMEM23 log2FC (Apoptosis genes, Gene 259230): 0.357
- MAGI3 log2FC (Apoptosis genes, Gene 260425): 0.325
- BLOC1S2 log2FC (Apoptosis genes, Gene 282991): 0.498
- NRBP2 log2FC (Apoptosis genes, Gene 340371): -0.074
- NANOS3 log2FC (Apoptosis genes, Gene 342977): -0.124
- AMIGO2 log2FC (Apoptosis genes, Gene 347902): 0.532
- C6orf120 log2FC (Apoptosis genes, Gene 387263): -0.615
- GDF6 log2FC (Apoptosis genes, Gene 392255): -0.089
- MYO18A log2FC (Apoptosis genes, Gene 399687): -0.470
- PRAMEF3 log2FC (Apoptosis genes, Gene 401940): -0.272
- ADIPOQ log2FC (Apoptosis genes, Gene 414149): -0.245
- PIM3 log2FC (Apoptosis genes, Gene 415116): 0.693
- LGALS7 log2FC (Apoptosis genes, Gene 653499): -0.163
- CARD9 log2FC (Apoptosis genes, Gene 728489): -0.457
- PDCD6 log2FC (Apoptosis genes, Gene 728613): -0.285
- RRN3 log2FC (Apoptosis genes, Gene 730092): 0.619
- CD24 log2FC (Apoptosis genes, Gene 100133941): 0.127
- ACVR1 log2FC (Gene 90, cell cycle genes): 0.534
- ACVR1B log2FC (Gene 91, cell cycle genes): -0.563
- ADCYAP1 log2FC (Gene 116, cell cycle genes): 0.068
- AHR log2FC (Gene 196, cell cycle genes): 0.995
- AIF1 log2FC (Gene 199, cell cycle genes): -0.077
- AK1 log2FC (Gene 203, cell cycle genes): -0.344
- AKT1 log2FC (Gene 207, cell cycle genes): -0.608
- AKT2 log2FC (Gene 208, cell cycle genes): -0.554
- ALOX15B log2FC (Gene 247, cell cycle genes): -0.102
- ANK3 log2FC (Gene 288, cell cycle genes): 0.532
- ANXA1 log2FC (Gene 301, cell cycle genes): 0.991
- ANXA11 log2FC (Gene 311, cell cycle genes): -0.496
- APBB1 log2FC (Gene 322, cell cycle genes): 0.078
- APBB2 log2FC (Gene 323, cell cycle genes): -0.357
- APEX1 log2FC (Gene 328, cell cycle genes): 0.266
- BIRC2 log2FC (Gene 329, cell cycle genes): 0.082
- APP log2FC (Gene 351, cell cycle genes): 0.379
- ARF6 log2FC (Gene 382, cell cycle genes): -0.682
- RHOB log2FC (Gene 388, cell cycle genes): -0.133
- RHOC log2FC (Gene 389, cell cycle genes): -0.491
- ARL2 log2FC (Gene 402, cell cycle genes): -0.140
- ARL3 log2FC (Gene 403, cell cycle genes): 0.192
- ASNS log2FC (Gene 440, cell cycle genes): -0.404
- BACH1 log2FC (Gene 571, cell cycle genes): 0.774
- BARD1 log2FC (Gene 580, cell cycle genes): 0.487
- BBS4 log2FC (Gene 585, cell cycle genes): 1.207
- CCND1 log2FC (Gene 595, cell cycle genes): -1.564
- BCL2 log2FC (Gene 596, cell cycle genes): -0.310
- BCL2L1 log2FC (Gene 598, cell cycle genes): -0.991
- BCR log2FC (Gene 613, cell cycle genes): -0.914
- BID log2FC (Gene 637, cell cycle genes): -0.095
- BMP2 log2FC (Gene 650, cell cycle genes): -0.038
- BMP7 log2FC (Gene 655, cell cycle genes): -0.344
- DST log2FC (Gene 667, cell cycle genes): 0.571
- BRCA1 log2FC (Gene 672, cell cycle genes): 0.792
- BRDT log2FC (Gene 676, cell cycle genes): 0.068
- BUB1 log2FC (Gene 699, cell cycle genes): 0.803
- CALM1 log2FC (Gene 801, cell cycle genes): 0.216
- CALR log2FC (Gene 811, cell cycle genes): -0.081
- CAMK2A log2FC (Gene 815, cell cycle genes): 0.024
- CAMK2D log2FC (Gene 817, cell cycle genes): 0.613
- CAMK2G log2FC (Gene 818, cell cycle genes): 0.874
- CASP2 log2FC (Gene 835, cell cycle genes): -0.918
- CAV2 log2FC (Gene 858, cell cycle genes): 0.696
- RUNX3 log2FC (Gene 864, cell cycle genes): -0.494
- CCNA2 log2FC (Gene 890, cell cycle genes): -0.047
- CCNB1 log2FC (Gene 891, cell cycle genes): 0.072
- CCNC log2FC (Gene 892, cell cycle genes): 0.257
- CCND2 log2FC (Gene 894, cell cycle genes): -1.006
- CCND3 log2FC (Gene 896, cell cycle genes): -0.730
- CCNE1 log2FC (Gene 898, cell cycle genes): -0.471
- CCNG1 log2FC (Gene 900, cell cycle genes): 0.908
- CCNG2 log2FC (Gene 901, cell cycle genes): 3.913
- CD28 log2FC (Gene 940, cell cycle genes): 0.087
- CDC5L log2FC (Gene 988, cell cycle genes): 1.004
- CDC6 log2FC (Gene 990, cell cycle genes): -0.800
- CDC20 log2FC (Gene 991, cell cycle genes): -0.346
- CDC25A log2FC (Gene 993, cell cycle genes): -1.970
